The record followed here is patent publication US20230414628A1, “METHODS FOR TREATING DISEASES MEDIATED BY GLUTATHIONE PEROXIDASE 4” (priority 2022, published 2023).

pEC50: −log10 of the molar value.

The subject of one assay is RAG02 (derived from fibroblasts of the patient's parent). Put plainly: CellTiter-Glo assay in RAG02 control cell line. In kind it is cell-based, human. The following applies: 1 μM control, 72 hours. Here is the method: (§1) Compounds described herein were tested in three cell lines, RAG01 (derived from fibroblasts of a patient diagnosed with SSMD) fibroblasts, RAG02 (derived from fibroblasts of the patient's parent), and GM09503 (from supplier Corriell) (derived from a healthy donor) to each generate 10-point concentration response curves (CRC). The three cell lines were each thawed seven (7) days prior to seeding. The RAG01 cells were thawed in a medium supplemented with a-tocopherol. Cells were passaged four (4) days prior to the seeding. The α-tocopherol was removed from the RAG01 cells. Cells were then seeded at 900 cells per well in 384-well plates. Two replicates were prepared for two independent (replicate) experiments. All plates were then incubated with compounds described herein for 72 hours, prior to CellTiter-Glo assay. The compounds were tested in 10-point concentration (CRCs) from 10 μM using 3.16×(half Log) dilutions. The assay was run using the CellTiter-Glo (Promega) following manufacturer's guidelines and luminescent spectrophotometric reading on PHERAstar FSX (BMG Labtech). […]
(§2) The raw data was analyzed using Activity Base® software. The compounds were evaluated by efficacy (percentage effect) normalized to the vehicle control. The percentage effect (PE) was determined from the signal increase in comparison to the vehicle control according to the formula below: […]
(In general: Cellular ATP, detected with luciferase, serves as a proxy for viable cell number.)
As for `CCOC(=O)c1ccc(NC2CCCCC2)c(N)c1` [Ferrostain-1, Ferrostatin-1], the “effect of control compound on RAG02 cells” value is recorded as “No effect”.

The test system of the next assay is GM09503 (derived from a healthy donor). As to the kind of experiment: CellTiter-Glo assay in GM09503 control cell line. Type of assay: cell-based, human. Conditions: 1 μM control, 72 hours. The procedure: as §1, §2
As for `CCOC(=O)c1ccc(NC2CCCCC2)c(N)c1` [Ferrostain-1, Ferrostatin-1], the “effect of control compound on GM09503 cells” value is reported as “No effect”.

The test system of the next assay is RAG01 (derived from fibroblasts of a patient diagnosed with SSMD) fibroblasts. Put plainly: CellTiter-Glo concentration response in RAG01 fibroblasts. Type of assay: cell-based, human. Conditions: Homo sapiens, Fibroblast, 72 h. The procedure: Compounds described herein were tested in three cell lines, RAG01 (derived from fibroblasts of a patient diagnosed with SSMD) fibroblasts, RAG02 (derived from fibroblasts of the patient's parent), and GM09503 (from supplier Corriell) (derived from a healthy donor) to each generate 10-point concentration response curves (CRC). The three cell lines were each thawed seven (7) days prior to seeding. The RAG01 cells were thawed in a medium supplemented with a-tocopherol. Cells were passaged four (4) days prior to the seeding. The α-tocopherol was removed from the RAG01 cells. Cells were then seeded at 900 cells per well in 384-well plates. Two replicates were prepared for two independent (replicate) experiments. All plates were then incubated with compounds described herein for 72 hours, prior to CellTiter-Glo assay. […] The assay was run using the CellTiter-Glo (Promega) following manufacturer's guidelines and luminescent spectrophotometric reading on PHERAstar FSX (BMG Labtech). A 0.1% dimethylsulfoxide (DMSO) was used as a blank (vehicle control); and a 1 μM Ferrostatin-1 was used as a control (CTRL).
as §2
The percentage effect values were then plotted against log concentration of the drug to generate a concentration response curve. The curves were fitted using a four-parameter fit, and curve tops and hillslopes were fixed where required and justified.
In general, pEC50 refers to −log10 of the EC50, conventionally taken in molar units. Turning to `COC(=O)c1cc2c(C(F)(F)F)cc(-c3ccccc3)cc2n1O` [compound 100, NHI-2], the pEC50 is 5.88.

The assay is the same for the next values; noted with them: Homo sapiens, Fibroblast; RAG01 cell line; 72 hours incubation; CellTiter-Glo; percentage effect normalized to vehicle control; 10-point CRC from 10 μM; read-out: EC50.
With `O=C1NC(=O)c2cc(Nc3ccccc3)c(Nc3ccccc3)cc21` [compound 66, CGP 52411], the pEC50 is 6.69. As to `C=CC(=O)Nc1cc(Nc2nccc(-c3cn(C)c4ccccc34)n2)c(OC)cc1N(C)CCN(C)C` [compound 67, osimertinib], the negative logarithm of the EC50 (pEC50) is 6.61.

Turning to `C=CC(=O)Nc1cccc(Nc2nc(Nc3ccc(NC4CN(CCF)C4)cc3OC)ncc2C(F)(F)F)c1` [compound 68, CNX-2006], the pEC50 is 6.44. On the same count and under the same terms, next, `C=CC(=O)Nc1cccc(Oc2nc(Nc3ccc(N4CCN(C)CC4)cc3)nc3ccsc23)c1` [compound 70, Olmutinib]: 6.31. For `CS(=O)(=O)CCNCc1ccc(-c2ccc3ncnc(Nc4ccc(OCc5cccc(F)c5)c(Cl)c4)c3c2)o1` [compound 71, lapatinib], the pEC50 is 5.29. `CCN1CCC(n2cc(CNc3cc(Cl)c4ncc(C#N)c(Nc5ccc(F)c(Cl)c5)c4c3)nn2)CC1` [compound 72, Cot inhibitor-2]: the pEC50 is 7.11. Same read-out and setting: next, `O=C1NC(=O)c2cc(Nc3ccc(F)cc3)c(Nc3ccc(F)cc3)cc21` [compound 73, CGP 53353]: 6.77; `COc1ccc2c(c1)c(C1=C(c3c[nH]c4ccccc34)C(=O)NC1=O)cn2CCCN(C)C` [compound 74, Go 6983]: 6.12. For `CN1CCN(Cc2ccc(-c3cnc4[nH]cc(-c5ccc6[nH]ccc6c5)c4c3)cc2)CC1` [compound 75, URMC-099], the pEC50 is 6.42. Take `COc1cc(N2CCC(N3CCN(C)CC3)CC2)ccc1Nc1ncc(Cl)c(Nc2ccccc2S(=O)(=O)C(C)C)n1` [compound 76, NVP-TAE684]: the pEC50 is 6.32. As to `CNC(=O)c1ccccc1Nc1cc(Nc2ccc(N3CCOCC3)cc2OC)ncc1C(F)(F)F` [compound 77, PND-1186 (VS-4718)], the pEC50 is 6.21. Still for that read-out and setting: next, `O=C1Nc2cc(Br)ccc2/C1=C1/Nc2ccccc2/C1=N\O` [compound 79, GSK-3-inhibitor-IX]: 6.25; `CCOc1cc(N2CCC(O)CC2)ccc1Nc1ncc2c(n1)N(C1CCCC1)CCC(=O)N2C` [compound 80, Mps1-IN-1]: 6.34.

Turning to `Cc1cc(N2CCOCC2)ccc1Nc1nc(NC2CCCCC2)c2nc[nH]c2n1` [compound 81, MPI-0479605], the pEC50 is 6.16. On to `Cc1ccc(NC(=O)c2ccc(CN3CCN(C)CC3)cc2)cc1Nc1nc(-c2cccnc2)cs1` [compound 82, Masitinib (AB1010)], for which the pEC50 is 6.04.

Take `Cc1ccccc1C(=O)c1ccc(Nc2ccc(Br)cc2N)cc1Cl` [compound 83, EO-1428]: the pEC50 was 5.98. On the same count and under the same terms, next, `NC(=O)c1nc(Nc2ccccc2)sc1NC(=O)C1CCCCC1` [compound 85, UNC-3230]: 5.91; `CC1(C)CNc2cc(NC(=O)c3cccnc3NCc3ccncc3)ccc21` [compound 86, Motesanib]: 5.84; `Cc1ccc(F)c(NC(=O)Nc2ccc(-c3cccc4[nH]nc(N)c34)cc2)c1` [compound 87, Linifanib]: 5.78. Consider `Cc1c(NC(=O)OC[C@@H]2COCCN2)cn2ncnc(Nc3ccc4c(cnn4Cc4cccc(F)c4)c3)c12` [compound 88, BMS-599626], for which the pEC50 is 5.64. Same read-out and setting: next, `CC(C)(C)C(=O)/C(=N/c1ccc(Cl)cc1)NNc1ccc(Cl)cc1` [compound 90, TY 52156]: 6.93. On to `O=C1c2cccnc2C(=O)C(NCCN2CCOCC2)C1Cl` (stereo not shown) [compound 91, NSC 663284], for which the pEC50 was 6.57. For the molecule `COc1ccc2nc3cc(Cl)ccc3c(Nc3cc(CN4CCCC4)c(O)c(CN4CCCC4)c3)c2n1` [compound 92, pyronaridine], the pEC50 was 6.38. On the same count and under the same terms, as for `COC(=O)c1sccc1S(=O)(=O)Nc1ccc(Nc2ccccc2)cc1OC` [compound 93, GSK-0660], the figure is 6.36; as for `OC(CNc1ccccc1)Cn1c2ccc(Br)cc2c2cc(Br)ccc21` (stereo not shown) [compound 94, P7C3], 6.19. Same read-out and setting: next, `Cc1cccc(Nc2nc(-c3ccncc3)cs2)c1` [compound 95, STF-62247]: 6.13; `COc1ccc(-c2nc(-c3ccc(-c4cccc(Cl)c4)o3)[nH]c2-c2ccc(OC)cc2)cc1` [compound 96, neurodazine]: 6.02. As to `c1ccc2c(Oc3nc(Nc4ccc(N5CCOCC5)cc4)c4ncn(C5CCCCC5)c4n3)cccc2c1` [compound 97, Purmorphamine], the negative-log EC50 (pEC50) is 5.96. With `C[C@@H]1CC(=O)c2c(ccc3c2C(=O)c2cccc(O)c2C3=O)C1` [compound 98, ochromycinone], the pEC50 is 5.94. Same read-out and setting: next, `O=C1C=Cc2cc(Br)ccc2C1=O` [compound 99, bonaphthone]: 5.90; `Cc1[nH]c(/C=C2\C(=O)Nc3cc(-c4ccccc4)ccc32)c(C)c1CCC(=O)O` [compound 101, su-16f]: 5.86; `N#Cc1ccc(-c2csc(NN=C3CCCC3)n2)cc1` [compound 103, remodelin]: 5.81. As for `COC(=O)/C=C/c1cccc(N(Cc2ccc(-c3ccc(N(C)C)cc3)cc2)C(=O)C2CCCCC2)c1` [compound 104, Fexaramine], the pEC50 is 5.76. Turning to `CC(C)(C)c1cc(C(C)(C)C)c(NC(=O)c2c[nH]c3ccccc3c2=O)cc1O` [compound 105, ivacaftor], the pEC50 is 5.74. The same measure, in the same setting: as for `Cc1nn(C)c2nc(NNC(=O)Nc3cc(Cl)nc(Cl)c3)cc(C(C)C)c12` [compound 106, JTE-013], the figure is 5.61. As for `COc1cc(OC)cc(C(=O)NNC(=O)Nc2cccc3ccccc23)c1` [compound 107, TC-O-9311], the pEC50 is 5.45. On to `Cn1cc(/C=C/C(=O)c2cccc(F)c2)cc1/C=C/C(=O)NO` [compound 108, MC1568], for which the pEC50 was 5.42.

For the molecule `COc1ccc2c3c([nH]c2c1)[C@H](CC(C)C)N1C(=O)[C@H](CCC(=O)OC(C)(C)C)NC(=O)[C@@H]1C3` [compound 109, Ko 143], the pEC50 is 5.40. Same read-out and setting: as for `CCC[C@H](N[C@H]1CCc2cc(F)cc(F)c2C1)C(=O)Nc1cn(C(C)(C)CNCC(C)(C)C)cn1` [compound 110, Nirogacestat], the figure is 5.25.

The assay is the same for the next values; noted with them: RAG01 cell line; 72 hours incubation; CellTiter-Glo; percentage effect normalized to vehicle control; 10-point CRC from 10 μM; read-out: EC50.
As for `CCCCCCCCCCC(O)C1C=CC2C(=O)N(c3ccccc3)C(=O)C2N1Nc1ccc([N+](=O)[O-])cc1` (stereo not shown) [compound 89, A12B4C3], the pEC50 is 5.57. Same read-out and setting: next, butylated hydroxyanisole [compound 11]: 5.93; licochalcone [compound 21]: 5.97; piperacetazine [compound 45]: 5.80.
